Results on one compound are retold here after PMC5485725, “QueF-Like, a Non-Homologous Archaeosine Synthase from the Crenarchaeota” (Biomolecules, 2017).

For the experiment, the target named is T1, QueF-like (QueF-L) from Pyrobaculum calidifontis (Pyrobaculum calidifontis, UniProt A3MSP1).
T1 construct: codon-optimized synthetic gene in FactorXa/LIC vector (pLBI14), expressed in E. coli BL21(DE3); N-terminal His6 tag cut by Factor Xa; starts at Met1 (primer encodes MLKVSK..., ends ...PPVYI); decamer
T1 sequence (A3MSP1 1-109): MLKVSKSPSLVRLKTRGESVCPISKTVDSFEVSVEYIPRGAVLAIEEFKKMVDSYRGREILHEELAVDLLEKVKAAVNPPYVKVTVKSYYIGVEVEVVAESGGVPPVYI
Nature of the experiment: UV-Vis titration of thioimide absorbance at […] nm. It counts as binding. The settings on record: read-out: apparent KD.

For the compound `N#Cc1c[nH]c2nc(N)[nH]c(=O)c12` [preQ0], the Kd was found to be 8 µM.
